pIC50: −log10 of the molar value. Like-named read-outs stand apart in the source and are kept apart here.
Experiments:
[1] = molecular target: Mer (Homo sapiens (Human), UniProt Q12866); test: Microfluidic Capillary Electrophoresis (MCE) kinase activity assay, Mer; assay type: biochemical
[2] = molecular target: Tyro3 (Homo sapiens (Human), UniProt Q06418); test: Microfluidic Capillary Electrophoresis (MCE) kinase activity assay, Tyro3; assay type: biochemical
[3] = MCE assay, Mer 2.0 nM, ATP 5.0 uM (at Km), 1.0 μM fluorescent substrate, 180 min incubation
[4] = MCE assay, Tyro 10 nM, ATP 21 uM (at Km), 1.0 μM fluorescent substrate, 180 min incubation

Chain of Mer (Q12866 21-999): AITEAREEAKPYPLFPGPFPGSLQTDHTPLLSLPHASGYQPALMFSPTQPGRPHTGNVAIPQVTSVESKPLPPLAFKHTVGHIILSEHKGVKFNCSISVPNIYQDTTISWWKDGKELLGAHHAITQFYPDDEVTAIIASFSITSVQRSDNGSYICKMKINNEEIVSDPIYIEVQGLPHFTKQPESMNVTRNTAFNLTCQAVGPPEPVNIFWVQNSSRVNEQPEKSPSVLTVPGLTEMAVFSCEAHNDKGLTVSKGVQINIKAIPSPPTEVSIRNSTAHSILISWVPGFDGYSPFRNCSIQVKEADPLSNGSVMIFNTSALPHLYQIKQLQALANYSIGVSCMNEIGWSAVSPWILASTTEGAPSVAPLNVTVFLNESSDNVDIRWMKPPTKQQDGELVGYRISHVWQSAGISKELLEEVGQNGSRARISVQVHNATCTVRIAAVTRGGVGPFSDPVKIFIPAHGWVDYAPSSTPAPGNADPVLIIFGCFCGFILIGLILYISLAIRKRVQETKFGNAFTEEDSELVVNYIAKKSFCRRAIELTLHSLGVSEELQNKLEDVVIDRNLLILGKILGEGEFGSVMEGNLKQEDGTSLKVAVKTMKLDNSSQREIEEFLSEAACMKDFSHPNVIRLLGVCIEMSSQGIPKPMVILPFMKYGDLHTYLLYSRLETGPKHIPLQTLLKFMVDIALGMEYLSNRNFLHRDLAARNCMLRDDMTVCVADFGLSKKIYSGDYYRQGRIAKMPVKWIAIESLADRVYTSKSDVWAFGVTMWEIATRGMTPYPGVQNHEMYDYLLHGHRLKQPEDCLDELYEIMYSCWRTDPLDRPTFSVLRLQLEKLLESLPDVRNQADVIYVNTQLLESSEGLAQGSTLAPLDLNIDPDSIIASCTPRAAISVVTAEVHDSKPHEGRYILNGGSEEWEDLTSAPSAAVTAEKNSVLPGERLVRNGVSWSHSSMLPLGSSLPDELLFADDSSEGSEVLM
Chain of Tyro3 (Q06418 41-890): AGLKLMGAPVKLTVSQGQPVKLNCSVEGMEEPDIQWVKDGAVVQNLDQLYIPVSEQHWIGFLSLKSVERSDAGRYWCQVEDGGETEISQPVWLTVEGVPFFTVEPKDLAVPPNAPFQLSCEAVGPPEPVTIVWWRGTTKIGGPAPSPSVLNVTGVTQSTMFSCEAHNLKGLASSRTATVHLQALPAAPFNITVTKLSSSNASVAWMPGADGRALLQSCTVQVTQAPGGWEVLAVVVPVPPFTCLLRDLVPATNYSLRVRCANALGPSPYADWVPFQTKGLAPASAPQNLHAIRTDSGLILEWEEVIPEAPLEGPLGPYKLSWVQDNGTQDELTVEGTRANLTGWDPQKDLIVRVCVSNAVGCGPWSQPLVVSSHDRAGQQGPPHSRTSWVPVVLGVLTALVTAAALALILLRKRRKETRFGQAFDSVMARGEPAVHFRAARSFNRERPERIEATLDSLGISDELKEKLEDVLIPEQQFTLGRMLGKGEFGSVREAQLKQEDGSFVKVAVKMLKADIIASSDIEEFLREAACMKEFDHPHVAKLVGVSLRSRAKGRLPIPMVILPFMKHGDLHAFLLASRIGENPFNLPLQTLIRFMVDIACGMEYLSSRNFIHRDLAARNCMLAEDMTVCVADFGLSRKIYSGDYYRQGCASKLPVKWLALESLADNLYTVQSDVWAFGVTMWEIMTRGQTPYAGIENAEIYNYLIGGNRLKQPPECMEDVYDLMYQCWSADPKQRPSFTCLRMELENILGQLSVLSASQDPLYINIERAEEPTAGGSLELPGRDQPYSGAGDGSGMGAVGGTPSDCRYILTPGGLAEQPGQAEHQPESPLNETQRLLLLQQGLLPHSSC

SMILES | pIC50 [1] | pIC50 [2] | pIC50 [1, 3] | pIC50 [2, 4]
COc1cccc(Nc2ncc(C3CCN(C(=O)C4CCCC4)CC3)c(N[C@H]3CC[C@H](O)CC3)n2)c1 [Compound 1, cyclopentyl(4-(4-((trans-4-hydroxycyclohexyl)amino)-2-((3-methoxyphenyl)amino)pyrimidin-5-yl)piperidin-1-yl)methanone] | 6.00 to 7.00 | 6.00 to 7.00 | – | –
COc1cc(Nc2ncc(C3CCN(C(=O)OC(C)(C)C)CC3)c(N[C@H]3CC[C@H](O)CC3)n2)ccn1 [Compound 2] | 7.00 to 8.00 | 7.00 to 8.00 | – | –
COc1cccc(Nc2ncc(C3CCN(CC4CCCC4)CC3)c(N[C@H]3CC[C@H](O)CC3)n2)c1 [Compound 4, trans-4-((5-(1-(cyclopentylmethyl)piperidin-4-yl)-2-((3-methoxyphenyl)amino)pyrimidin-4-yl)amino)cyclohexan-1-ol] | – | 7.00 to 8.00 | > 8.00 | –
COc1cc(Nc2ncc(C3CCN(CC4CCCC4)CC3)c(N[C@H]3CC[C@H](O)CC3)n2)ccn1 [Compound 5] | – | 7.00 to 8.00 | > 8.00 | –
COc1cc(Nc2ncc(C3CCN(C)CC3)c(N[C@H]3CC[C@H](O)CC3)n2)ccn1 [Compound 6] | 7.00 to 8.00 | 7.00 to 8.00 | – | –
Cc1cc(Nc2ncc(C3CCNCC3)c(N[C@H]3CC[C@H](O)CC3)n2)ccn1 [Compound 8] | 7.00 to 8.00 | 7.00 to 8.00 | – | –
O[C@H]1CC[C@H](Nc2nc(Nc3ccnc(Cl)c3)ncc2C2CCNCC2)CC1 [Compound 9] | 7.00 to 8.00 | 7.00 to 8.00 | – | –
Cc1cc(Nc2ncc(C3CCNCC3)c(N[C@H]3CC[C@H](O)CC3)n2)cc(C)n1 [Compound 10] | 4.52 to 6.00 | 7.00 to 8.00 | – | –
Cc1cc(Nc2ncc(C3CCN(C4CCCC4)CC3)c(N[C@H]3CC[C@H](O)CC3)n2)ccn1 [Compound 11, trans-4-((5-(1-cyclopentylpiperidin-4-yl)-2-((2-methylpyridin-4-yl)amino)pyrimidin-4-yl)amino)cyclohexan-1-ol] | – | 7.00 to 8.00 | > 8.00 | –
O[C@H]1CC[C@H](Nc2nc(Nc3ccnc(Cl)c3)ncc2C2CCN(C3CCCC3)CC2)CC1 [Compound 12] | – | – | > 8.00 | > 8.00
O[C@H]1CC[C@H](Nc2nc(Nc3ccnc(C(F)(F)F)c3)ncc2C2CCN(C3CCCC3)CC2)CC1 [Compound 13] | > 8.00 | 7.00 to 8.00 | – | –
NC(=O)c1cc(Nc2ncc(C3CCN(C4CCCC4)CC3)c(N[C@H]3CC[C@H](O)CC3)n2)ccn1 [Compound 14] | 7.00 to 8.00 | 7.00 to 8.00 | – | –
Cc1cc(Nc2ncc(C3CCN(CC4CCCC4)CC3)c(N[C@H]3CC[C@H](O)CC3)n2)ccn1 [Compound 15] | – | 7.00 to 8.00 | > 8.00 | –
O[C@H]1CC[C@H](Nc2nc(Nc3ccnc(Cl)c3)ncc2C2CCN(CC3CCCC3)CC2)CC1 [Compound 16] | – | – | > 8.00 | > 8.00
O[C@H]1CC[C@H](Nc2nc(Nc3ccnc(C(F)(F)F)c3)ncc2C2CCN(CC3CCCC3)CC2)CC1 [Compound 17] | 7.00 to 8.00 | 7.00 to 8.00 | – | –
CC(F)(F)c1cc(Nc2ncc(C3CCN(CC4CCCC4)CC3)c(N[C@H]3CC[C@H](O)CC3)n2)ccn1 [Compound 18] | – | – | > 8.00 | > 8.00
Cc1cc(Nc2ncc(C3CCN(CC4CCCC4)CC3)c(N[C@H]3CC[C@H](O)CC3)n2)cc(C)n1 [Compound 19] | 6.00 to 7.00 | 7.00 to 8.00 | – | –
NC(=O)c1cc(Nc2ncc(C3CCN(CC4CCCC4)CC3)c(N[C@H]3CC[C@H](O)CC3)n2)ccn1 [Compound 20] | – | 7.00 to 8.00 | > 8.00 | –
COc1cc(Nc2ncc(C3CCNCC3)c(N[C@H]3CC[C@H](NC(C)=O)CC3)n2)ccn1 [Compound 21] | 7.00 to 8.00 | 7.00 to 8.00 | – | –

Results, then the molecule that gave them:

pIC50 [1] | pIC50 [2] | pIC50 [1, 3] | pIC50 [2, 4] | SMILES
6.00 to 7.00 | 4.52 to 6.00 | – | – | COc1cc(Nc2ncc(C3CCN(C4CCCC4)CC3)c(N[C@H]3CC[C@H](NC(C)=O)CC3)n2)ccn1 [Compound 22]
– | 7.00 to 8.00 | > 8.00 | – | COc1cc(Nc2ncc(C3CCN(C4CCCC4)CC3)c(N[C@H]3CC[C@H](N)CC3)n2)ccn1 [Compound 23]
7.00 to 8.00 | 6.00 to 7.00 | – | – | COc1cc(Nc2ncc(C3CCN(C4CCCC4)CC3)c(N[C@H]3CC[C@H](N(C)C)CC3)n2)ccn1 [Compound 24]
– | 7.00 to 8.00 | > 8.00 | – | COc1cc(Nc2ncc(C3CCN(C4CCCC4)CC3)c(N[C@H]3CC[C@H](O)CC3)n2)ccn1 [Compound 25]
7.00 to 8.00 | 7.00 to 8.00 | – | – | COc1cc(Nc2ncc(C3CCN(C(=O)C4CCCC4)CC3)c(N[C@H]3CC[C@H](O)CC3)n2)ccn1 [Compound 26, Cyclopentyl(4-(4-((trans-4-hydroxycyclohexyl)amino)-2-((2-methoxypyridin-4-yl)amino)pyrimidin-5-yl)piperidin-1-yl)methanone]
7.00 to 8.00 | 7.00 to 8.00 | – | – | O[C@H]1CC[C@H](Nc2nc(Nc3ccnc(Cl)c3)ncc2C2CCN(CC3COC3)CC2)CC1 [Compound 28]
7.00 to 8.00 | 7.00 to 8.00 | – | – | CN1CCC(CN2CCC(c3cnc(Nc4ccnc(Cl)c4)nc3N[C@H]3CC[C@H](O)CC3)CC2)CC1 [Compound 29]
– | – | > 8.00 | > 8.00 | O[C@H]1CC[C@H](Nc2nc(Nc3ccnc(Cl)c3)ncc2C2CCN(CC3CCC(F)(F)CC3)CC2)CC1 [Compound 30]
– | 7.00 to 8.00 | > 8.00 | – | Cc1cc(CN2CCC(c3cnc(Nc4ccnc(Cl)c4)nc3N[C@H]3CC[C@H](O)CC3)CC2)no1 [Compound 31]
– | 7.00 to 8.00 | > 8.00 | – | O[C@H]1CC[C@H](Nc2nc(Nc3ccnc(Cl)c3)ncc2C2CCN(Cc3ccccc3)CC2)CC1 [Compound 32]
– | – | > 8.00 | > 8.00 | O[C@H]1CC[C@H](Nc2nc(Nc3ccnc(Cl)c3)ncc2C2CCN(CC3CCC3)CC2)CC1 [Compound 33]
– | 7.00 to 8.00 | > 8.00 | – | O[C@H]1CC[C@H](Nc2nc(Nc3ccnc(Cl)c3)ncc2C2CCN(CC3CCOCC3)CC2)CC1 [Compound 34]
– | 7.00 to 8.00 | > 8.00 | – | O[C@H]1CC[C@H](Nc2nc(Nc3ccnc(F)c3)ncc2C2CCNCC2)CC1 [Compound 37]
7.00 to 8.00 | 7.00 to 8.00 | – | – | O[C@H]1CC[C@H](Nc2nc(Nc3ccnc(C4CC4)c3)ncc2C2CCNCC2)CC1 [Compound 41]
6.00 to 7.00 | 4.52 to 6.00 | – | – | O[C@H]1CC[C@H](Nc2nc(Nc3ccnc(N4CCCC4)c3)ncc2C2CCNCC2)CC1 [Compound 43]
7.00 to 8.00 | 6.00 to 7.00 | – | – | CN1CCN(c2cc(Nc3ncc(C4CCNCC4)c(N[C@H]4CC[C@H](O)CC4)n3)ccn2)CC1 [Compound 44]
4.52 to 6.00 | 4.52 to 6.00 | – | – | O[C@H]1CC[C@H](Nc2nc(Nc3ccnc(N4CCCCC4)c3)ncc2C2CCNCC2)CC1 [Compound 45]
– | – | > 8.00 | > 8.00 | O[C@H]1CC[C@H](Nc2nc(Nc3ccnc(Cl)c3)ncc2C2CCN(CC3CC3)CC2)CC1 [Compound 46]
7.00 to 8.00 | 7.00 to 8.00 | – | – | O[C@H]1CC[C@H](Nc2nc(Nc3ccnc(Cl)c3)ncc2C2CCN(c3ccccc3)CC2)CC1 [Compound 47, trans-4-((2-((2-Chloropyridin-4-yl)amino)-5-(1-phenylpiperidin-4-yl)pyrimidin-4-yl)amino)cyclohexan-1-ol]
– | – | > 8.00 | > 8.00 | CC1(C)CC(N2CCC(c3cnc(Nc4ccnc(Cl)c4)nc3N[C@H]3CC[C@H](O)CC3)CC2)C1 [Compound 48]
– | – | > 8.00 | > 8.00 | O[C@H]1CC[C@H](Nc2nc(Nc3ccnc(Cl)c3)ncc2C2CCN(C3CC(C4CC4)C3)CC2)CC1 (stereo partly drawn) [Compound 49]
– | 7.00 to 8.00 | > 8.00 | – | N#Cc1cc(Nc2ncc(C3CCN(CC4CCCC4)CC3)c(N[C@H]3CC[C@H](O)CC3)n2)ccn1 [Compound 55]
– | 7.00 to 8.00 | > 8.00 | – | N#Cc1cc(Nc2ncc(C3CCN(CC4CCC(F)(F)CC4)CC3)c(N[C@H]3CC[C@H](O)CC3)n2)ccn1 [Compound 56]

From patent US12448365B2, “Aryl aminopyrimidines as dual MerTK and TYRO3 inhibitors and methods thereof” (The University of North Carolina at Chapel Hill, priority 2019, dated 2025)
